Experimental data from US4798811A, “Combination preparation” (BASF Aktiengesellschaft, priority 1986, dated 1989).

How the values were obtained:
thrombocyte aggregation [1] = experiment: In vitro inhibition of thrombocyte aggregation induced by adrenalin and collagen in thrombocyte-rich plasma; assay type: cell-based, test persons
Experimental: (§1) The following methods were used:
1. In vitro investigations
(§2) Venous blood was taken from four test persons and rendered unclottable by adding citrate, and thrombocyte-rich plasma was then obtained from this blood by centrifuging under 300 g for 10 minutes at 4° C. The addition of adrenalin (final concentration 5×10^-8 mole/liter) and collagen (final concentration 2×10^-3 g/liter) to the thrombocyte-rich plasma caused aggregation, which was measured as the change in extinction using a Born aggregometer MK 3. The maximum change in extinction per second was used as a measure of aggregation. The percentage inhibition of aggregation was determined by comparing the values before and after administration of the substance.

thrombocyte aggregation [2] = experiment: Ex vivo inhibition of thrombocyte aggregation after oral administration to five test persons; assay type: in vivo; conditions: four hours after administration
Experimental: as §1, §2
2. Ex vivo investigations
The candidate compounds were filled into stomach-soluble gelatine capsules and administered orally to five test persons. Venous blood was taken before administration of the substances and four hours after administration. This blood was prepared as under 1 and made to aggregate. The percentage inhibition of aggregation was determined by comparing the values before and after administration of the substance.

Row | SMILES | inhibition at 1 µg/mL (thrombocyte aggregation [1]; Conc. 1 mg/l, adrenalin 5×10^-8 mole/liter and collagen 2×10^-3 g/liter) | aggregation inhibition (in words) (thrombocyte aggregation [1]; dose of 1.0 mg/l) | Aggregation inhibition (%) (thrombocyte aggregation [2]; oral Dosage 60 mg) | inhibition at 2 µg/mL (thrombocyte aggregation [1]; Conc. 2 mg/l, adrenalin 5×10^-8 mole/liter and collagen 2×10^-3 g/liter) | inhibition at 10 µg/mL (thrombocyte aggregation [1]; Conc. 10 mg/l, adrenalin 5×10^-8 mole/liter and collagen 2×10^-3 g/liter) | Aggregation inhibition (%) (thrombocyte aggregation [2]; oral Dosage 240 mg)
1 | CC(=O)Oc1ccccc1C(=O)O [ASA, acetylsalicylic acid] | 0% | ineffective | 0% |  |  | 
2 | COc1ccc(CCN(C)CCCC(C#N)(c2ccc(OC)c(OC)c2)C(C)C)cc1OC (stereo not drawn) [Verapamil, 1,7-bis-(3,4-dimethoxyphenyl)-3-methylaza-7-cyano-8-methylnonane] |  |  |  | 8.7% | 31% | 33%
